Measured values published in US12005127B2, “DNA-PK inhibitors” (VERTEX PHARMACEUTICALS INCORPORATED, priority 2018, dated 2024).

What was measured:
[1] = biological target: T1, DNA-PK (Homo sapiens, UniProt P78527); assay: DNA-PK inhibition assay (radiometric 33P-ATP kinase assay); format: biochemical; settings: competitive tight-binding fit
Experimental: Compounds were screened for their ability to inhibit DNA-PK kinase using a standard radiometric assay. Briefly, in this kinase assay the transfer of the terminal ^33P-phosphate in ^33P-ATP to a peptide substrate is interrogated. The assay was carried out in 384-well plates to a final volume of 50 μL per well containing approximately 6 nM DNA-PK, 50 mM HEPES (pH 7.5), 10 mM MgCl2, 25 mM NaCl, 0.01% BSA, 1 mM DTT, 10 μg/mL sheared double-stranded DNA (obtained from Sigma), 0.8 mg/mL DNA-PK peptide (Glu-Pro-Pro-Leu-Ser-Gln-Glu-Ala-Phe-Ala-Asp-Leu-Trp-Lys-Lys-Lys, obtained from American Peptide), and 100 μM ATP. Accordingly, compounds of the invention were dissolved in DMSO to make 10 mM initial stock solutions. Serial dilutions in DMSO were then made to obtain the final solutions for the assay. A 0.75 μL aliquot of DMSO or inhibitor in DMSO was added to each well, followed by the addition of ATP substrate solution containing ^33P-ATP (obtained from Perkin Elmer). The reaction was started by the addition of DNA-PK, peptide and ds-DNA. After 45 min, the reaction was quenched with 25 μL of 5% phosphoric acid. The reaction mixture was transferred to MultiScreen HTS 384-well PH plates (obtained from Millipore), allowed to bind for one hour, and washed three times with 1% phosphoric acid. Following the addition of 50 μL of Ultima Gold™ high efficiency scintillant (obtained from Perkin Elmer), the samples were counted in a Packard TopCount NXT Microplate Scintillation and Luminescence Counter (Packard BioScience). The Ki values were calculated using Microsoft Excel Solver macros to fit the data to the kinetic model for competitive tight-binding inhibition. In Tables 1 and 2 below, Ki of less than 0.001 micromolar for the inhibition of DNA-PK is indicated as “A”; Ki of equal to or greater than 0.001 micromolar and less than 0.01 micromolar for the inhibition of DNA-PK as “B”; Ki of equal to or greater than 0.01 micromolar and less than 0.1 micromolar for the inhibition of DNA-PK as “C”; Ki of equal to or greater than 0.1 micromolar and less than 1 micromolar for the inhibition of DNA-PK for “D”; and Ki of equal to or greater than 1 micromolar as “E.”

[2] = biological target: T1, DNA-PK; assay: DNA-PK cellular assay (pDNA-PK Ser2056 sandwich ELISA, NCS-induced DSBs); format: cell-based; set-up: endogenous in cells; host or cells: A549 (human NSCLC); settings: pDNA-PK (Ser2056) in A549 cells, NCS 50 ng/ml, 15 minutes
Excerpt: DNA-PK is recruited to and activated by double-strand breaks (DSB) in DNA and plays a critical role in the non-homologous end-joining (NHEJ) repair mechanism. Upon activation, DNA-PK undergoes rapid autophosphorylation at Ser2056. The measure of pDNA-PK (Ser2056) in response to DNA DSBs provides a cellular signaling assay to evaluate potential DNA-PK kinase inhibitors.
Neocarzinostatin (NCS) was used as a radiomimetic to induce DNA DSBs. The sandwich ELISA used the Meso Scale Discovery electrochemiluminescence technology platform which typically provides greater sensitivity than traditional ELISA formats.
A549 (human NSCLC) cells are plated at 25,000 cells/well in 100 uL of DMEM (Invitrogen cat #11995-040) supplemented with 1% Pen/Strep (Invitrogen cat #15070-063) and 10% FBS (Hyclone cat #SH30071.03HI) on black clear bottom 96 well plates (Costar #3904) and allowed to adhere overnight at 37° C. in 5% CO2. The following day, the compounds and NCS solutions are prepared by adding 100 ul of DMEM growth media per well in a Corning polypropylene V-bottom deep well plate (cat #3357). The HP Compound Dilution D300 instrument was used to add compounds to the appropriate wells using the setting logarithmic and 16-point titration singlet.
The DMEM NCS solution was prepared by adding NCS to DMEM media at 200 ng/ml (final assay concentration, 50 ng/ml). 100 ul of the DMEM/NCS solution is added to the wells with the compounds. 100 ul of this solution is then immediately added to the A549 cells. The cells are then incubated for 15 minutes at 37° C.
The complete lysis buffer is prepared by adding 1% Phosphatase inhibitor (Sigma cat #P2850) and 1% Protease Inhibitor (Sigma cat #P8340) to the Lanthascreen cellular assay lysis buffer (Invitrogen cat #PV5598). The media from the plate was removed by flicking and patting dry. 60 uL/well of the complete lysis buffer is added to each well. These plates are then incubated for at least 5 minutes in the lysis buffer at room temperature to ensure complete lysis. At this point the lysates can be transferred to prepared ELISA plates.
The prepared ELISA plates were prepared blocking the Mesoscale Goat-Anti-Mouse (GAM) plates with 150 uL/well of 3% Blocker A (Mesoscale cat #R93-BA) for one hour at room temperature with shaking. The capture antibody is prepared by diluting the mouse monoclonal anti-total DNA-PK (AbCAM cat #ab1832) to 3 ug/mL in 1% Blocker A. The blocked plates rinsed once with 200 uL D-PBS. The capture antibody (25 ul/well) was added to each well and allowed to incubate for an hour at room temperature while shaking. This was rinsed once with 200 ul D-PBS before adding 25 uL of the prepared cell lysate from the cell plates to the Mesoscale GAM ELISA plate. The lysate is then incubated on the plates for one hour at room temperature with shaking. The detection antibody (Epitomics rabbit anti-pS2056-DNA-PK) is prepared at a 1/1000 dilution (to a final concentration of 450 ng/mL) in 1% Blocker A. The GAM plates are washed once with 200 uL of D-PBS and then 25 uL/well of the detection antibody is added to the plate. This incubates for one hour at room temperature with shaking. The Sulfotag is prepared by adding Sulfo-Tag Goat-Anti-Rabbit antibody (Mesoscale cat #R32AB-1) at a 1/500 dilution (1 ug/mL) to 1% Blocker A. The GAM plates are washed with 200 uL of D-PBS and then 25 uL of the Sulfotag preparation is added to each well. Once the plates have been incubated with the final solution, the Sulfotag, for 1 hour, they are washed once with 200 uL of D-PBS. The 1× Read Buffer (Mesoscale cat #R32-TC) is made by diluting the 4× buffer in ddH20. 150 uL of 1× buffer is added to each well of the GAM plate and then the plate is read on the Sector Imager 2400. The readout (electrochemiluminescence) was plotted against the concentration of each compound and the IC50s were generated using Prism software (GraphPad Prism version 6.0e for Macintosh). […]

Structure (SMILES)	Ki ([1]; Table 1, 100 μM ATP) [µM]	IC50 ([2]; Table 1) [nM]	Ki ([1]; Table 2, 100 μM ATP) [µM]	IC50 ([2]; Table 2) [nM]
Cc1ncc2c(O[C@H]3CC[C@@H](NC(=O)OC(C)(C)C)CC3)cc(N3CCOCC3)cc2n1 [Compound 10, tert-butyl N-[4-(2-methyl-7-morpholino-quinazolin-5-yl)oxycyclohexyl]carbamate]	0.001 to 0.01	≥ 1000		
Cn1cnc(C(=O)N[C@H]2CC[C@@H](Oc3cc(N4CCOCC4)cc4ncncc34)CC2)c1 [Compound 26, 1-methyl-N-((1s,4s)-4-((7-morpholinoquinazolin-5-yl)oxy)cyclohexyl)-1H-imidazole-4-carboxamide]		100 to 1000		
COc1ccc(COc2cc(N3CCOCC3)cc3nc[nH]c(=O)c23)cc1 [Compound 51, 5-[(4-methoxyphenyl)methoxy]-7-morpholino-3H-quinazolin-4-one]			0.1 to 1	≥ 1000
COc1ccc(COc2cc(N3CCOCC3)cc3ncnc(OC)c23)cc1 [Compound 53, 4-[4-methoxy-5-[(4-methoxyphenyl)methoxy]quinazolin-7-yl]morpholine]			0.01 to 0.1	≥ 1000
O=C1c2ccccc2C(=O)N1[C@H]1CC[C@@H](Oc2cc(N3CCOCC3)cc3ncncc23)CC1 [Compound 7, 2-[4-(7-morpholinoquinazolin-5-yl)oxycyclohexyl]isoindoline-1,3-dione]	0.001 to 0.01	100 to 1000		
COc1ccc(COc2cc(N3CCOCC3)cc3ncnc(Cl)c23)cc1 [Compound 54, 4-[4-chloro-5-[(4-methoxyphenyl)methoxy]quinazolin-7-yl]morpholine]			0.01 to 0.1	
Cc1nccc(N[C@H]2CC[C@@H](Oc3cc(N4CCOCC4)cc4ncn(C)c(=O)c34)CC2)n1 [Compound 21, 3-methyl-5-[4-[(2-methylpyrimidin-4-yl)amino]cyclohexoxy]-7-morpholino-quinazolin-4-one]		100 to 1000		
CNC(=O)c1ccnc(N[C@H]2CC[C@@H](Oc3cc(N4CCOCC4)cc4nc[nH]c(=O)c34)CC2)n1 [Compound 11, N-methyl-2-[[4-[(7-morpholino-4-oxo-3H-quinazolin-5-yl)oxy]cyclohexyl]amino]pyrimidine-4-carboxamide]	< 0.001	≥ 1000		
CNC(=O)c1ccnc(N[C@H]2CC[C@@H](Oc3cc(N4CCOCC4)cc4ncn(C)c(=O)c34)CC2)n1 [Compound 25, N-methyl-2-[[4-(3-methyl-7-morpholino-4-oxo-quinazolin-5-yl)oxycyclohexyl]amino]pyrimidine-4-carboxamide]		100 to 1000		
COc1ccc(COc2cc(N3CCOCC3)cc3ncnc(C4CC4)c23)cc1 [Compound 56, 4-[4-cyclopropyl-5-[(4-methoxyphenyl)methoxy]quinazolin-7-yl]morpholine]				100 to 1000

The next lines start with the values.

Ki ([1]; Table 1, 100 μM ATP) [µM]	IC50 ([2]; Table 1) [nM]	Ki ([1]; Table 2, 100 μM ATP) [µM]	IC50 ([2]; Table 2) [nM]	Structure (SMILES)
< 0.001	< 100			Cc1nc2c(c(N[C@H]3CC[C@@H](Oc4cc(N5CCOCC5)cc5ncnc(C#N)c45)CC3)n1)OCC2 [Compound 2, 5-[4-[(2-methyl-6,7-dihydrofuro[3,2-d]pyrimidin-4-yl)amino]cyclohexoxy]-7-morpholino-quinazoline-4-carbonitrile]
< 0.001	< 100			Cc1nccc(N[C@H]2CC[C@@H](Oc3cc(N4CCOCC4)cc4ncncc34)CC2)n1 [Compound 3, 2-methyl-N-[4-(7-morpholinoquinazolin-5-yl)oxycyclohexyl]pyrimidin-4-amine]
< 0.001	< 100			CNC(=O)c1ccnc(N[C@H]2CC[C@@H](Oc3cc(N4CCOCC4)cc4ncnc(OC)c34)CC2)n1 [Compound 9, 2-[[4-(4-methoxy-7-morpholino-quinazolin-5-yl)oxycyclohexyl]amino]-N-methyl-pyrimidine-4-carboxamide]
< 0.001	< 100			c1ncc2c(O[C@H]3CC[C@@H](Nc4ncnc5ccoc45)CC3)cc(N3CCOCC3)cc2n1 [Compound 17, N-[4-(7-morpholinoquinazolin-5-yl)oxycyclohexyl]furo[3,2-d]pyrimidin-4-amine]
< 0.001	< 100			CCOC(=O)N[C@H]1CC[C@@H](Oc2cc(N3CCOCC3)cc3ncncc23)CC1 [Compound 22, ethyl ((1s,4s)-4-((7-morpholinoquinazolin-5-yl)oxy)cyclohexyl)carbamate]
< 0.001	< 100			CN1CCN(c2nccc(N[C@H]3CC[C@@H](Oc4cc(N5CCOCC5)cc5ncncc45)CC3)n2)CC1 [Compound 18, 2-(4-methylpiperazin-1-yl)-N-[4-(7-morpholinoquinazolin-5-yl)oxycyclohexyl]pyrimidin-4-amine]
< 0.001	< 100			CN1CCN(c2cc(N[C@H]3CC[C@@H](Oc4cc(N5CCOCC5)cc5ncncc45)CC3)ncn2)CC1 [Compound 14, 6-(4-methylpiperazin-1-yl)-N-[4-(7-morpholinoquinazolin-5-yl)oxycyclohexyl]pyrimidin-4-amine]
	< 100			c1cnc(O[C@H]2CC[C@H](Oc3cc(N4CCOCC4)cc4ncncc34)CC2)nc1 [Compound 28, 4-[5-trans-(4-pyrimidin-2-yloxycyclohexoxy)quinazolin-7-yl]morpholine]
0.001 to 0.01	< 100			CNC(=O)c1ccnc(N[C@H]2CC[C@@H](Oc3cc(N4CCOCC4)cc4nc(C)ncc34)CC2)n1 [Compound 19]
	< 100			c1cnc(O[C@H]2CC[C@@H](Oc3cc(N4CCOCC4)cc4ncncc34)CC2)nc1 [Compound 27, 4-[5-cis-(4-pyrimidin-2-yloxycyclohexoxy)quinazolin-7-yl]morpholine]
